{"source": "patent US6482850B2", "about": "“Hydrolysis-promoting hydrophobic taxane derivatives” (priority 1995, dated 2002)", "key": {"[1]": {"test_system": "A549 cancer cells", "procedure": "Briefly, 96-well microtiter plates were inoculated (100 μL/well) with 5×10^3 (A549) or 7.5×10^3 (OVCAR-3) cells/well, in RPMI-1640 supplemented with 10% FBS (growth media). The plates were incubated for 24 hr at 37° C., 100% humidity and 5% CO2. At 24 hours, growth media (100 μL) was added to designated “time zero” plates. Similarly, serial dilutions of drug or vehicle (in media) were added (100 μL aliquots) to the test and vehicle control wells at twice the predetermined highest concentration. There were triplicate wells on each plate and duplicate plates (total 6 wells) for each drug concentration. The test plates were incubated as above for 72 hr. Cells (including time zero plates) were then fixed with 50 μL of 50% trichloroacetic acid (TCA) (w:v) for adherent cells or 80% TCA for suspended cells, and plates refrigerated at 4° C. for 1 hr. The supernatant was discarded (suspended cell plates were first centrifuged) and the wells rinsed six times with tap water and air-dried. One hundred microliters of 0.4% SRB in 1% acetic acid were added to each well and the plates were incubated under ambient (RT) conditions for 10 min. Unbound stain was removed by rinsing the wells three times with 1% acetic acid. The plates were then air-dried for 24 hr. The bound stain was solubilized with 100 μL of 10 mM Tris buffer and the optical density was read spectrophotometrically at 490 nm (Microplate Reader Model 3550-UV, Bio-Rad, Hercules, Calif.). Percent growth was calculated as follows: (T-T0) / (C-T0)×100; where (T)=mean optical density of treated wells at a given drug concentration, (T0)=mean optical density of time zero wells, and (C)=mean optical density of control wells."}, "[2]": {"test_system": "OVCAR-3 cancer cells", "conditions": "read-out: GI50 ± S.D. OVCAR-3; 72 hr, SRB assay", "procedure": "Briefly, 96-well microtiter plates were inoculated (100 μL/well) with 5×10^3 (A549) or 7.5×10^3 (OVCAR-3) cells/well, in RPMI-1640 supplemented with 10% FBS (growth media). The plates were incubated for 24 hr at 37° C., 100% humidity and 5% CO2. At 24 hours, growth media (100 μL) was added to designated “time zero” plates. Similarly, serial dilutions of drug or vehicle (in media) were added (100 μL aliquots) to the test and vehicle control wells at twice the predetermined highest concentration. There were triplicate wells on each plate and duplicate plates (total 6 wells) for each drug concentration. The test plates were incubated as above for 72 hr. Cells (including time zero plates) were then fixed with 50 μL of 50% trichloroacetic acid (TCA) (w:v) for adherent cells or 80% TCA for suspended cells, and plates refrigerated at 4° C. for 1 hr. […] The bound stain was solubilized with 100 μL of 10 mM Tris buffer and the optical density was read spectrophotometrically at 490 nm (Microplate Reader Model 3550-UV, Bio-Rad, Hercules, Calif.). Percent growth was calculated as follows: (T-T0) / (C-T0)×100; where (T)=mean optical density of treated wells at a given drug concentration, (T0)=mean optical density of time zero wells, and (C)=mean optical density of control wells."}, "[3]": {"test_system": "A549 human lung cancer", "experiment": "s.c. A549 tumor, i.v. treatment, tumor volume (FIG. 8)", "format": "in vivo, mice", "from_the_text": "Mice were sacrificed when the average tumor volume of the group reached 1500 mm^3."}}, "data": [{"smiles": "CCCCCCCCCCCCCC[C@@H](Br)C(=O)O[C@@H](C(=O)O[C@H]1C[C@@]2(O)[C@@H](OC(=O)c3ccccc3)[C@@H]3[C@]4(OC(C)=O)CO[C@@H]4C[C@H](O)[C@@]3(C)C(=O)[C@H](OC(C)=O)C(=C1C)C2(C)C)[C@@H](NC(=O)c1ccccc1)c1ccccc1", "note": "[BrC16HT, 2′-(R)-[2-bromohexadecanoyl] paclitaxel]", "values": [{"measurement": "GI50 relative to Taxol®", "setting": "[1]; in both cell lines (A549, OVCAR-3)", "value": "approximately ten times higher than Taxol®"}, {"measurement": "GI50", "setting": "[1]; read-out: GI50 ± S.D. A549, 72 hr, SRB assay", "value": "29 ± 5.9", "unit": "nM"}, {"measurement": "GI50", "setting": "[2]", "value": "20 ± 3.3", "unit": "nM"}, {"measurement": "efficacy compared with Taxol® at 25 mg/kg", "setting": "[3]; all early treatment schedules (FIGS. 8a-c), BrC16HT at 12.5 or 25 mg/kg i.v.", "value": "more effective than Taxol® at 25 mg/kg"}, {"measurement": "tumor regression compared with Taxol®", "setting": "[3]; delayed schedule, days 20, 22, 24, 26 and 28, 25 mg/kg i.v. (FIG. 8d)", "value": "greater and more prolonged tumor regression"}, {"measurement": "tumor growth vs. control", "setting": "[3]; i.v., independent of the dose schedule, BrC16HT 12.5-25 mg/kg, Taxol® 25 mg/kg", "value": "significantly (p <0.05 vs. control) inhibited the tumor growth"}]}]}
